Reference: ChEMBL document CHEMBL1201862, “PubChem BioAssay data set” (2004)
Where “and” joins values, the source holds several entries; their conditions need not be identical. Identical values can stand only once.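 The compound was tested at five concentrations on cells cultured in 96-well plates, with a 48-hour exposure period. At the GI50, growth is halved.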 Calls of active or inactive are those of the source. Rule as the data show it: active = GI50 up to about 1.1 µM and inactive = higher.

Legend:
Assay in all cases: growth of human tumour cells (NCI), 48 h
[1] = system: COLO 205
[2] = system: SNB-75
[3] = system: NCI-H226
[4] = system: SF-268
[5] = system: A549
[6] = system: M14
[7] = system: A498
[8] = system: OVCAR-3
[9] = system: HCT-15
[10] = system: SK-OV-3
[11] = system: SK-MEL-5
[12] = system: TK-10
[13] = system: HOP-62
[14] = system: MCF7
[15] = system: SF-539
[16] = system: HOP-92
[17] = system: IGROV-1
[18] = system: OVCAR-8
[19] = system: K562
[20] = system: HL-60

SMILES | GI50 [1] | GI50 [2] | GI50 [3] | GI50 [4] | GI50 [5] | GI50 [6] | GI50 [7] | GI50 [8] | GI50 [9] [µM] | GI50 [10] | GI50 [11] | GI50 [12] | GI50 [13] | GI50 [14] | GI50 [15] | GI50 [16] | GI50 [17] | GI50 [18] | GI50 [19] | GI50 [20]
C=CCOC(=O)CCCCCCCCCCCCCCCOC(=O)c1c(CCC[C@@H](C)O[Si](C)(C)C(C)(C)C)nc([O-])[n+]2c1CC[C@H]2CC1(CC/C=C\[C@H](CC)O[Si](C(C)C)(C(C)C)C(C)C)OCCO1 | > 100 µM (inactive) | > 100 µM (inactive) | > 100 µM (inactive) | > 100 µM (inactive) | 55 µM (inactive) | > 100 µM (inactive) | > 100 µM (inactive) | 50.8 µM (inactive) | 46 | > 100 µM (inactive) | 21.9 µM (inactive) | > 100 µM (inactive) | 48.6 µM (inactive) | 53.5 µM (inactive) | > 100 µM (inactive) | 18.2 µM (inactive) | – | – | – | –
CC(=O)NCC1(c2ccccc2)CCN(CC2COc3ccccc3O2)CC1 (centres undefined) [ACOXATRINE] | > 100 µM (inactive) | > 100 µM (inactive) | > 100 µM (inactive) | > 100 µM (inactive) | > 100 µM (inactive) | > 100 µM (inactive) | > 100 µM (inactive) | > 100 µM (inactive) | > 100 | > 100 µM (inactive) | > 100 µM (inactive) | > 100 µM (inactive) | > 100 µM (inactive) | > 100 µM (inactive) | > 100 µM (inactive) | – | > 100 µM (inactive) | > 100 µM (inactive) | > 100 µM (inactive) | > 100 µM (inactive)
CC1=NC(=Cc2cc(Br)cc(Br)c2)C(=O)N1n1c(-c2ccccc2)nc2ccccc2c1=O | > 100 µM (inactive) | > 100 µM (inactive) | > 100 µM (inactive) | > 100 µM (inactive) | > 100 µM (inactive) | > 100 µM (inactive) | – | > 100 µM (inactive) | > 100 | > 100 µM (inactive) | > 100 µM (inactive) | > 100 µM (inactive) | > 100 µM (inactive) | > 100 µM (inactive) | > 100 µM (inactive) | > 100 µM (inactive) | > 100 µM (inactive) | > 100 µM (inactive) | > 100 µM (inactive) | > 100 µM (inactive)
CCN(CC)Cc1nc(C2CCC([N+](=O)[O-])O2)no1 (centres undefined) | 16.6 µM (inactive) | 16.6 µM (inactive) | 67.8 µM (inactive) | 24.5 µM (inactive) | 39.8 µM (inactive) | 14.5 µM (inactive) | – | 23.8 µM (inactive) | 19.4 | > 100 µM (inactive) | 16.4 µM (inactive) | > 100 µM (inactive) | 35.7 µM (inactive) | 15.6 µM (inactive) | 28.2 µM (inactive) | > 100 µM (inactive) | 41.5 µM (inactive) | 30.1 µM (inactive) | 36.2 µM (inactive) | 16.6 µM (inactive)
COC(=O)c1c(C#N)[nH]c(-c2ccsc2)c1C(=O)OC | > 100 µM (inactive) | > 100 µM (inactive) | > 100 µM (inactive) | > 100 µM (inactive) | > 100 µM (inactive) | > 100 µM (inactive) | > 100 µM (inactive) | > 100 µM (inactive) | – | > 100 µM (inactive) | 39 µM (inactive) | > 100 µM (inactive) | > 100 µM (inactive) | > 100 µM (inactive) | – | 51.6 µM (inactive) | > 100 µM (inactive) | > 100 µM (inactive) | 78 µM (inactive) | –
CC1(C)O[C@@H](CO)[C@H]([C@@]23OC[C@H]4OC(C)(C)OC4[C@@H]2OC(C)(C)O3)O1 (some centres undefined) | > 100 µM (inactive) | > 100 µM (inactive) | > 100 µM (inactive) | > 100 µM (inactive) | > 100 µM (inactive) | > 100 µM (inactive) | – | > 100 µM (inactive) | > 100 | > 100 µM (inactive) | 20.3 µM (inactive) | – | > 100 µM (inactive) | > 100 µM (inactive) | – | > 100 µM (inactive) | > 100 µM (inactive) | > 100 µM (inactive) | > 100 µM (inactive) | > 100 µM (inactive)
NCCCN(CCCN)CCc1cn(C(=O)c2ccccc2)cn1 | 3.14 µM (inactive) | 6.07 µM (inactive) | 9.64 µM (inactive) | 7.8 µM (inactive) | 9.46 µM (inactive) | 4.94 µM (inactive) | – | 2.69 µM (inactive) | 7.78 | 11.2 µM (inactive) | 7 µM (inactive) | 5.33 µM (inactive) | 7.74 µM (inactive) | 2.62 µM (inactive) | 13.2 µM (inactive) | 4.05 µM (inactive) | 4.19 µM (inactive) | 16.9 µM (inactive) | 3.61 µM (inactive) | 3.84 µM (inactive)
COc1cccc(-c2cc(O)c3cc(C)cnc3n2)c1 | 0.0449 µM (active) | 0.0188 µM (active) | 0.0757 µM (active) | 0.594 µM (active) | 0.0776 µM (active) | 0.0543 µM (active) | 0.0904 µM (active) | 0.049 µM (active) | 0.251 | 0.283 µM (active) | 0.0787 µM (active) | – | 0.0682 µM (active) | 0.543 µM (active) | 0.0371 µM (active) | – | 0.469 µM (active) | 0.0658 µM (active) | 0.0381 µM (active) | 0.0246 µM (active)
CNC(=O)C1CCCN1C(=O)C(Cc1c[nH]cn1)NC(=O)C1CCC(=O)N1 (centres undefined) | > 100 µM (inactive) | > 100 µM (inactive) | > 100 µM (inactive) | > 100 µM (inactive) | > 100 µM (inactive) | > 100 µM (inactive) | – | > 100 µM (inactive) | > 100 | > 100 µM (inactive) | > 100 µM (inactive) | > 100 µM (inactive) | > 100 µM (inactive) | > 100 µM (inactive) | – | > 100 µM (inactive) | > 100 µM (inactive) | > 100 µM (inactive) | > 100 µM (inactive) | > 100 µM (inactive)
Cc1ccc(/N=N/C(=N/NC(=O)c2cc(Cl)ccc2O)c2ccc(N(CCC#N)CCC#N)cc2C)cc1 | 12.4 µM (inactive) | 26.7 µM (inactive) | 17.1 µM (inactive) | 25.1 µM (inactive) | 28.6 µM (inactive) | 30.6 µM (inactive) | 12.1 µM (inactive) | 11.1 µM (inactive) | 32.1 | 32.9 µM (inactive) | 16.8 µM (inactive) | 21.2 µM (inactive) | 32.8 µM (inactive) | 24.7 µM (inactive) | 18.5 µM (inactive) | – | 23.9 µM (inactive) | 20.7 µM (inactive) | 17.1 µM (inactive) | 4.55 µM (inactive)
CC(C)(C)NCC(O)COc1cccc2[nH]c(C#N)cc12 (centres undefined) [CYANOPINDOLOL] | 56 µM (inactive) | – | > 100 µM (inactive) | > 100 µM (inactive) | > 100 µM (inactive) | > 100 µM (inactive) | 68.1 µM (inactive) | > 100 µM (inactive) | > 100 | > 100 µM (inactive) | > 100 µM (inactive) | 84.5 µM (inactive) | > 100 µM (inactive) | > 100 µM (inactive) | > 100 µM (inactive) | – | > 100 µM (inactive) | > 100 µM (inactive) | – | > 100 µM (inactive)
O=C(NN=C1CCCCC1)Nc1ccccc1Cl | 31.3 µM (inactive) | 2.82 µM (inactive) | 39.9 µM (inactive) | 41.1 µM (inactive) | 81.7 µM (inactive) | 29.8 µM (inactive) | – | 16.4 µM (inactive) | 39.6 | 55.6 µM (inactive) | 27.3 µM (inactive) | > 100 µM (inactive) | – | 34.2 µM (inactive) | 32.5 µM (inactive) | 23.6 µM (inactive) | 26.5 µM (inactive) | 62.5 µM (inactive) | 37.7 µM (inactive) | 29.6 µM (inactive)
CC(=O)OCC1OC(SC2=NC(=O)CS2)C(OC(C)=O)C(OC(C)=O)C1OC(C)=O (centres undefined) | – | > 100 µM (inactive) | > 100 µM (inactive) | > 100 µM (inactive) | > 100 µM (inactive) | > 100 µM (inactive) | > 100 µM (inactive) | > 100 µM (inactive) | – | > 100 µM (inactive) | > 100 µM (inactive) | 53.7 µM (inactive) | > 100 µM (inactive) | 71.4 µM (inactive) | > 100 µM (inactive) | – | > 100 µM (inactive) | > 100 µM (inactive) | 43.5 µM (inactive) and 40 µM (inactive) | 26.7 µM (inactive) and 23.4 µM (inactive)
c1ccc2c(c1)c1c(n2CCOCCN2CCCC2)CCCC1 | 19.5 µM (inactive) | 27.3 µM (inactive) | 22.4 µM (inactive) | 29 µM (inactive) | 28.1 µM (inactive) | 15.6 µM (inactive) | – | 25.4 µM (inactive) | 17 | 31.3 µM (inactive) | 15.2 µM (inactive) | 19.5 µM (inactive) | 15.5 µM (inactive) | 16 µM (inactive) | 14.5 µM (inactive) | 27.7 µM (inactive) | 23.7 µM (inactive) | 22.4 µM (inactive) | 15 µM (inactive) | 12.2 µM (inactive)
COC(CNC(=O)C(C)NC(=O)/C=C/c1ccccc1)OC (centres undefined) | > 100 µM (inactive) | > 100 µM (inactive) | > 100 µM (inactive) | > 100 µM (inactive) | > 100 µM (inactive) | > 100 µM (inactive) | – | – | > 100 | > 100 µM (inactive) | > 100 µM (inactive) | > 100 µM (inactive) | – | > 100 µM (inactive) | > 100 µM (inactive) | > 100 µM (inactive) | > 100 µM (inactive) | > 100 µM (inactive) | > 100 µM (inactive) | > 100 µM (inactive)
